Source: US10752587B2, “Homobispiperidinyl derivatives as liver X receptor beta agonists, compositions and their use” (Merck Sharp & Dohme Corp., priority 2015, dated 2020)
Read-outs that look alike come from different tables or passages of the source.

What was measured:
[1] = molecular target: T1, glutathione-S-transferase (GST) tagged LXRalpha LBD (ligand binding domain) (Homo sapiens, UniProt Q13133); experiment: LanthaScreen TR-FRET Liver X Receptor Coactivator Assay, co-activator recruitment to LXRalpha LBD; type: biochemical
T1 construct: purchased Invitrogen pv4655
T1 sequence (Q13133 209-447 limits assumed): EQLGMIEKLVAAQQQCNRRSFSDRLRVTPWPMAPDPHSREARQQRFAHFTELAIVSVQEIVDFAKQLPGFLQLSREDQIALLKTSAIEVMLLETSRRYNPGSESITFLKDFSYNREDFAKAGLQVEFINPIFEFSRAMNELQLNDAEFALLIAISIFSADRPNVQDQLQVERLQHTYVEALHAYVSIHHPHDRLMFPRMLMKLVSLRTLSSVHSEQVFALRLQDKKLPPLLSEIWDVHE
Outline: (§1)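 Efficacy (Emax) and inflection-point potency were scaled to reference agonist T0901317, acting on both LXR subtypes. Ligand-driven coactivator peptide recruitment was detected by TR-FRET after room-temperature incubation with terbium anti-GST antibody.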

[2] = molecular target: T2, glutathione-S-transferase (GST) tagged LXRbeta LBD (ligand binding domain) (Homo sapiens, UniProt P55055); experiment: LanthaScreen TR-FRET Liver X Receptor Coactivator Assay, co-activator recruitment to LXRbeta LBD; type: biochemical
T2 construct: purchased Invitrogen pv4658.pps
T2 sequence (P55055 222-460 limits assumed): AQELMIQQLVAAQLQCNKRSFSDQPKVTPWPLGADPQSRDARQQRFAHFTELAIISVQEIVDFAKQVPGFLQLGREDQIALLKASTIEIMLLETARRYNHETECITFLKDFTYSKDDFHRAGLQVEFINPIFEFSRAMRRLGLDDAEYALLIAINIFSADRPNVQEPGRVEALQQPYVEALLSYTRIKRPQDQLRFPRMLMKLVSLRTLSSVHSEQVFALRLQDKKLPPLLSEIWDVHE
Outline: as §1

[3] = efficacy at max dose, in relation to reference dual agonist T0901317, read-out: LXR alpha Activity @ max dose (%)
[4] = potency (Inflection Point, IP), co-activator recruitment to LXRalpha LBD, in relation to T0901317, read-out: LXR alpha IP
[5] = efficacy at max dose, in relation to reference dual agonist T0901317, read-out: LXR beta Activity @ max dose (%)
[6] = potency (Inflection Point, IP), co-activator recruitment to LXRbeta LBD, in relation to T0901317, read-out: LXR beta IP
[7] = potency (Inflection Point, IP), co-activator recruitment to LXRalpha LBD, in relation to T0901317
[8] = efficacy in relation to reference dual agonist T0901317, read-out: LXR alpha Activity @ max dose
[9] = co-activator recruitment to GST-LXRbeta LBD, TR-FRET, read-out: LXR beta IP (Inflection Point, potency)
[10] = efficacy in relation to reference dual agonist T0901317, read-out: LXR beta Activity @ max dose

| Structure (SMILES) | Emax [1, 3] | EC50 [1, 4] | Emax [2, 5] | EC50 [2, 6] | LXR alpha IP (nM) [1, 7] | further results |
| --- | --- | --- | --- | --- | --- | --- |
| CN(C)C(=O)c1ccc(N2CCC(CC3CCN(C(=O)[C@](N)(c4cc(Cl)cc(Cl)c4)C(F)(F)F)CC3)CC2)cc1Cl [Example 2-117, 4-[4-({1-[(2R)-2-amino-2-(3,5-dichloro-phenyl)-3,3,3-trifluoro-propanoyl]piperidin-4-yl}methyl)piperidin-1-yl]-2-chloro-N,N-dimethyl-benzamide] | 29% | 1010 nM | 125% | 22 nM | – | – |
| CN(C)C(=O)c1ccc(N2CCC(CC3(C)CCN(C(=O)[C@](O)(c4cc(Cl)cc(Cl)c4)C(F)(F)F)CC3)CC2)cc1Cl [Example 2-53, 2-chloro-4-[4-({1-[(2R)-2-(3,5-dichloro-phenyl)-3,3,3-trifluoro-2-hydroxy-propanoyl]-4-methylpiperidin-4-yl}methyl)piperidin-1-yl]-N,N-dimethyl-benzamide] | 0% | – | 50% | 5 nM | NO IP | – |
| CN(C)C(=O)c1ccc(N2CCC(CC3CCN(C(=O)C(O)(c4cccc5c4CCC5)C(F)(F)F)CC3)CC2)cc1Cl (centres unmarked) [Example 2-170, 2-chloro-4-[4-({1-[2-(2,3-dihydro-1H-inden-4-yl)-3,3,3-trifluoro-2-hydroxy-propanoyl]piperidin-4-yl}methyl)piperidin-1-yl]-N,N-dimethyl-benzamide] | 0% | – | 19% | 27 nM | NO IP | – |
| CN(C)C(=O)c1ccc(N2CCC(CC3CCN(C(=O)[C@](O)(c4cc(F)cc(Cl)c4)C(F)(F)F)CC3)CC2)cc1 [Example 2-139, 4-[4-({1-[(2R)-2-(3-chloro-5-fluorophenyl)-3,3,3-trifluoro-2-hydroxy-propanoyl]piperidin-4-yl}methyl)piperidin-1-yl]-N,N-dimethyl-benzamide] | 36% | 266 nM | 95% | 14 nM | – | – |
| CC(C)Oc1cccc([C@@](O)(C(=O)N2CCC(CC3CCN(c4ccc(C(N)=O)c(Cl)c4)CC3)CC2)C(F)(F)F)c1 [Example 12-7, 2-chloro-4-{4-[(1-{(2R)-3,3,3-trifluoro-2-hydroxy-2-[3-(1-methylethoxy)phenyl)-propanoyl}piperidin-4-yl)methyl]piperidin-1-yl}benzamide] | – | – | – | – | – | LXR alpha IP (Inflection Point, potency) ([1]; co-activator recruitment to GST-LXRalpha LBD, TR-FRET): NO IP; Emax [1, 8]: 12%; EC50 [2, 9]: 6 nM; Emax [2, 10]: 33% |
| Cc1cc(N2CCC(CC3CCN(C(=O)[C@](O)(c4cccc(OC(F)(F)F)c4)C(F)(F)F)CC3)CC2)ccc1C(=O)N(C)C [Example 2-150, N,N,2-trimethyl-4-{4-[(1-{(2R)-3,3,3-trifluoro-2-hydroxy-2-[3-(trifluoromethoxy)phenyl]propanoyl}piperidin-4-yl)methyl]piperidin-1-yl}benzamide] | 15% | – | 56% | 23 nM | NO IP | – |
| CN(C)C(=O)c1ccc(N2CCC(CC3CCN(C(=O)C(O)(c4ccccc4)c4ccsc4)CC3)CC2)nc1Cl (centres unmarked) [Example 7-96, 2-chloro-6-[4-({1-[hydroxy(phenyl)thiophen-3-ylacetyl]piperidin-4-yl}methyl)piperidin-1-yl]-N,N-dimethylpyridine-3-carboxamide] | – | – | – | – | NO IP | Emax ([1]; read-out: LXR alpha Activity @ max dose (%)): 5%; EC50 ([2]; LXR beta IP (nM), potency (Inflection Point, IP), co-activator recruitment to LXRbeta LBD, in relation to T0901317): 89 nM; Emax ([2]; read-out: LXR beta Activity @ max dose (%)): 23% |
| CN(C)C(=O)c1ccc(N2CCC(CC3CCN(S(=O)(=O)c4cccc(F)c4)CC3)CC2)cc1Cl [Example 13-7, 2-chloro-4-[4-({1-[(3-fluorophenyl)sulfonyl]-piperidin-4-yl}methyl)-piperidin-1-yl]-N,N-dimethylbenzamide] | – | – | – | – | – | EC50 ([1]; co-activator recruitment to GST-LXRalpha LBD, TR-FRET, read-out: LXR alpha IP (Inflection Point, potency)): 1190 nM; Emax [1, 8]: 25%; EC50 [2, 9]: 60 nM; Emax [2, 10]: 67% |
| Cc1cc(N2CCC(CC3CCN(C(=O)[C@](O)(c4cccc(C(C)C)c4)C(F)(F)F)CC3)CC2)ccc1C(=O)N(C)C [Example 2-149, N,N,2-trimethyl-4-{4-[(1-{(2R)-3,3,3-trifluoro-2-hydroxy-2-[3-(1-methyl-ethyl)phenyl]propanoyl}piperidin-4-yl)methyl]piperidin-1-yl}benzamide] | 14% | – | 54% | 20 nM | NO IP | – |
| CN(C)C(=O)c1ccc(N2CCC(CC3CN(C(=O)C(O)(c4cccc(Cl)c4)C(F)(F)F)C3)CC2)cc1Cl (centres unmarked) [Example 2-65, 2-chloro-4-[4-({1-[2-(3-chlorophenyl)-3,3,3-trifluoro-2-hydroxy-propanoyl]azetidin-3-yl}methyl)piperidin-1-yl]-N,N-dimethyl-benzamide] | 35% | 694 nM | 89% | 17 nM | – | – |
| CN(C)C(=O)c1ccc(N2CCC(OC3CCN(C(=O)[C@](O)(c4ccccc4)C(F)(F)F)CC3)CC2)cc1Cl [Example 2-11, 2-chloro-N,N-dimethyl-4-[4-({1-[(2R)-3,3,3-trifluoro-2-hydroxy-2-phenylpropanoyl]piperidin-4-yl}oxy)piperidin-1-yl]benzamide] | – | 1110 nM | 83% | – | – | LXR alpha Activity @ max dose (%) ([1]; efficacy at max dose, in relation to reference dual agonist T0901317): 33% |

Now from value to compound, other results behind:

| Emax [1, 3] | EC50 [1, 4] | Emax [2, 5] | EC50 [2, 6] | LXR alpha IP (nM) [1, 7] | Structure (SMILES) | further results |
| --- | --- | --- | --- | --- | --- | --- |
| 24% | 459 nM | 56% | 179 nM | – | O=C(c1ccc(N2CCC(CC3CCN(C(=O)[C@](O)(c4ccccc4)C(F)(F)F)CC3)CC2)cc1Cl)N1CC[C@@H](CO)C1 [Example 4-4, (2R)-3-(4-{[1-(3-chloro-4-{[(3R)-3-(hydroxymethyl)pyrrolidin-1-yl]carbonyl}phenyl)piperidin-4-yl]methyl}piperidin-1-yl)-1,1,1-trifluoro-3-oxo-2-phenylpropan-2-ol] | – |
| 51% | 127 nM | 113% | 9 nM | – | CNC(=O)c1ccc(N2CCC(CC3CCN(C(=O)[C@](O)(c4cccc(Br)c4)C(F)(F)F)CC3)CC2)nc1Cl [Example 7-146, 6-[4-({1-[(2R)-2-(3-bromophenyl)-3,3,3-trifluoro-2-hydroxypropanoyl]piperidin-4-yl}methyl)piperidin-1-yl]-2-chloro-N-methylpyridine-3-carboxamide] | – |
| 40% | 1580 nM | 112% | 52 nM | – | CNC(=O)c1ccc(N2CCC(OC3CCN(C(=O)C(O)(c4cccc(Cl)c4)C(F)(F)F)CC3)CC2)cc1Cl (centres unmarked) [Example 7-31, 2-chloro-4-[4-({1-[2-(3-chlorophenyl)-3,3,3-trifluoro-2-hydroxypropanoyl]piperidin-4-yl}oxy)piperidin-1-yl]-N-methylbenzamide] | – |
| 32% | – | 75% | 165 nM | NO IP | CN(C)C(=O)c1ccc(N2CCC(CC3CCN(C(=O)C(F)(F)c4ccccc4)CC3)CC2)nc1Cl [Example 7-86, 2-chloro-6-[4-({1-[difluoro(phenyl)acetyl]piperidin-4-yl}methyl)piperidin-1-yl]-N,N-dimethylpyridine-3-carboxamide] | – |
| 34% | 541 nM | 63% | 95 nM | – | CN(Cc1cncs1)C(=O)c1ccc(N2CCC(CC3CCN(C(=O)[C@](O)(c4ccccc4)C(F)(F)F)CC3)CC2)cc1Cl [Example 4-20, 2-chloro-N-methyl-N-(1,3-thiazol-5-ylmethyl)-4-[4-({1-[(2R)-3,3,3-trifluoro-2-hydroxy-2-phenylpropanoyl]piperidin-4-yl}methyl)piperidin-1-yl]benzamide] | – |
| 39% | 485 nM | 67% | 59 nM | – | O=C(c1ccc(N2CCC(CC3CCN(C(=O)[C@](O)(c4ccccc4)C(F)(F)F)CC3)CC2)cc1Cl)N1CC[C@H](F)C1 [Example 4-18] | – |
| 36% | 482 nM | 96% | 28 nM | – | CNC(=O)c1ccc(N2CCC(CC3CCN(C(=O)[C@](O)(c4cccc(OC)c4)C(F)(F)C(F)(F)F)CC3)CC2)cc1Cl [Example 7-124, 2-chloro-N-methyl-4-[4-({1-[(2R)-3,3,4,4,4-pentafluoro-2-hydroxy-2-(3-methoxyphenyl)butanoyl]piperidin-4-yl}methyl)piperidin-1-yl]benzamide] | – |
